In PubChem BioAssay AID1933 (Broad Institute, 2009) one finds EC50 data, which are given here for two molecules.

The experiment has as its system BJ-TERT fibroblast viability, ATP luminescence. The experiment can be described thus: BJ-TERT fibroblast viability loss – cell-based, RAS-independent, luminescence, dose response (AID 1933).

Records with an inconclusive call do not appear. The source made the active and inactive calls. The rule behind the calls is not given here.

A word on the EC50: it is the concentration at which the effect is half-maximal. `CCSc1nc2ccccc2n1C(=O)/C=C/c1ccc(OC)c(OC)c1`: the EC50 was > 15 µM (inactive). Consider `COc1cc2c(c(OC)c1OC)-c1ccc(O)c(=O)cc1C(NC(C)=O)CC2` (configuration not stated), for which the EC50 was less than 0.12 µM.
